Measurements from US10350199B2, “3-(1h-pyrrolo[2,3-b]pyridin-2-yl)-1h-indazoles and therapeutic uses thereof” (Samumed, LLC, priority 2015, dated 2019).

Key:
Format in all cases: cell-based
[1] = test system: Wnt activity (Sp5-Luc reporter, SW480 colon carcinoma cells); experiment: Wnt activity screening assay, Sp5-Luc reporter gene in SW480 cells; conditions: Homo sapiens; for inhibition at 10 µM: SW480, read-out: percent inhibition at 10 μM; for EC50: Sp5-Luc reporter, SW480 cells, overnight incubation
How it was run: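 SW480 cells stably transduced with lentiviral Sp5 promoter (eight TCF/LEF sites)-firefly luciferase, plated at 4,000 cells/well in 1% FBS medium and incubated overnight at 37° C. Luminescence read after BrightGlo addition, normalized to DMSO-only cells; EC50 from four-parameter variable-slope nonlinear regression.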

[2] = test system: SW480 colon cancer cells; experiment: Cell viability assay (CellTiter-Blue), SW480 cells, four days; conditions: Homo sapiens; for EC50: 96 h, SW480 cell viability, four days, CellTiter-Blue; for inhibition at 10 µM: SW480, read-out: percent inhibition at 10 μM
How it was run: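 Fluorescence from resazurin reduced to resorufin by metabolically active cells was the read-out, taken after ~3 h with CellTiter-Blue.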

[3] = test system: primary human fibroblasts derived from IPF patients (LL29 cells) treated with TGF-β1; experiment: Inhibition of the fibrotic process: αSMA staining in TGF-β1 treated LL29 fibroblasts; conditions: Fibroblast; for EC50: 96 h, LL29 cells, TGF-β1 20 ng/mL, 4 days, % αSMA positive cells; for inhibition at 10 µM: read-out: percent inhibition at 10 μM
How it was run: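 IPF-patient-derived LL29 lung fibroblasts in F12 with 1% FBS, stimulated with TGF-β1 alongside compound; TGF-β1 plus DMSO wells served as controls. After 4 days, nuclei stained with 1 μM SYTOX green for 30 min at room temperature, alongside αSMA staining.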

[4] = test system: primary human mesenchymal stem cells (hMSCs); experiment: Induction of chondrogenesis in human mesenchymal stem cells (nodule area, Rhodamine B/Nile Red); conditions: hMSC chondrogenesis; for EC50: concentration required to induce 50% levels of chondrogenesis of TGF-β3 positive control, read-out: Conc (nM) of 50% TGF-β3 activity; for Emax: relative to TGF-β3 (10 ng/mL) positive control, read-out: Max. Activity as % TGF-β3 activity
Description: Representative compounds were screened using primary human mesenchymal stem cells (hMSCs) to determine their ability to induce chondrogenesis (process by which cartilage is developed).
Primary human mesenchymal stem cells (hMSCs) were purchased from Lonza (Walkersville, Md.) and expanded in Mesenchymal Stem Cell Growth Media (Lonza). Cells between passage 3 and 6 were used for the experiments.
Area of nodules in each well was normalized to the average of 3 DMSO treated wells on the same plate using Excel (Microsoft Inc.). The normalized averages (fold change over DMSO) of 2 or 3 replicate wells for each compound concentration were calculated. Due to solubility limitations of some of the compounds, curve fitting was incomplete leading to inaccurate EC50 determinations.
Using TGF-β3 as a positive control, the concentration of representative compounds required to induce 50% levels of chondrogenesis is reported. In addition, the maximum activity of each compound and the respective dose that each compound reached maximum chondrogenesis activity is reported.

[5] = test system: IL-6 (THP-1 human monocyte cell line); experiment: IL-6 inhibition in LPS-stimulated THP-1 cells (HTRF); conditions: for EC50: IL-6 inhibition, LPS-stimulated THP-1 cells, HTRF; for inhibition at 10 µM: THP-1, read-out: percentage in parentheses beside EC50 >10 (IL-6 inhibition)
How it was run: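 THP-1 cells kept 24 h in 1% FBS medium, treated 2 h at 37 °C, then stimulated with 500 ng/mL LPS for another 22 h. IL-6 measured by HTRF as the 665/620 nm ratio; EC50 from a four-parameter fit normalized to DMSO controls.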

Row | Structure (SMILES) | EC50 [1] | EC50 [2] | EC50 [4] | EC50 [5] | inhibition at 10 µM [1] | inhibition at 10 µM [2] | EC50 [3] | Emax [4] | inhibition at 10 µM [3] | inhibition at 10 µM [5]
1 | c1cnc2[nH]c(-c3n[nH]c4ccc(-c5cncnc5)cc34)cc2c1 [Compound 279, 5-(Pyrimidin-5-yl)-3-(1H-pyrrolo[2,3-b]pyridin-2-yl)-1H-indazole] | > 10000 nM | > 10000 nM | 10 nM | 140 nM | 16.6% | 17.9% | 9840 nM | 84% |  | 
2 | c1cc(-c2ccsc2)c2cc(-c3n[nH]c4ccc(-c5cncc(CN6CCCCC6)c5)cc34)[nH]c2n1 [Compound 295, 5-(5-(Piperidin-1-ylmethyl)pyridin-3-yl)-3-(4-(thiophen-3-yl)-1H-pyrrolo[2,3-b]pyridin-2-yl)-1H-indazole] | > 10000 nM | > 10000 nM | 30 nM | > 10000 nM | 37.1% | 2.1% | > 10000 nM | 73% | 16.8% | 34.9%
3 | Fc1cccc(-c2ccnc3[nH]c(-c4n[nH]c5ccc(C6CCNCC6)cc45)cc23)c1 [Compound 505, 3-(4-(3-Fluorophenyl)-1H-pyrrolo[2,3-b]pyridin-2-yl)-5-(piperidin-4-yl)-1H-indazole] | 563 nM | 465 nM | 900 nM | 166 nM |  |  | 335 nM | 103% |  | 
4 | CN1CCN(c2ccnc3[nH]c(-c4n[nH]c5ccc(-c6cncc(NC(=O)CC7CCNCC7)c6)cc45)cc23)CC1 [Compound 641, N-(5-(3-(4-(4-Methylpiperazin-1-yl)-1H-pyrrolo[2,3-b]pyridin-2-yl)-1H-indazol-5-yl)pyridin-3-yl)-2-(piperidin-4-yl)acetamide] | > 10000 nM | > 10000 nM |  | > 10000 nM | 10.8% | 16.2% | > 10000 nM | 17% | 23.5% | 26%
5 | c1cnc2[nH]c(-c3n[nH]c4ccc(-c5cncc(OCCN6CCCC6)c5)cc34)cc2c1 [Compound 658, 5-(5-(2-(Pyrrolidin-1-yl)ethoxy)pyridin-3-yl)-3-(1H-pyrrolo[2,3-b]pyridin-2-yl)-1H-indazole] | 3300 nM | 3940 nM |  | 205 nM |  |  | 1200 nM | 43% |  | 
6 | CN(C)Cc1cncc(-c2cc(F)c3[nH]nc(-c4cc5c(-c6cccc(F)c6)ccnc5[nH]4)c3c2)c1 [Compound 992, 1-(5-(7-Fluoro-3-(4-(3-fluorophenyl)-1H-pyrrolo[2,3-b]pyridin-2-yl)-1H-indazol-5-yl)pyridin-3-yl)-N,N-dimethylmethanamine] | > 10000 nM | > 10000 nM |  | > 10000 nM | 17% | 3.6% | > 10000 nM | 35% | 5.2% | 34.2%
7 | CN(C)Cc1cncc(-c2cc3c(-c4cc5c(-c6cccc(F)c6)ccnc5[nH]4)n[nH]c3cc2F)c1 [Compound 993, 1-(5-(6-Fluoro-3-(4-(3-fluorophenyl)-1H-pyrrolo[2,3-b]pyridin-2-yl)-1H-indazol-5-yl)pyridin-3-yl)-N,N-dimethylmethanamine] | > 10000 nM | 2400 nM |  | 852 nM |  |  | 1630 nM | 28% |  | 
8 | CN(C)Cc1cncc(-c2ccc3[nH]nc(-c4cc5c(-c6cccc(F)c6)ccnc5[nH]4)c3c2F)c1 [Compound 994, 1-(5-(4-Fluoro-3-(4-(3-fluorophenyl)-1H-pyrrolo[2,3-b]pyridin-2-yl)-1H-indazol-5-yl)pyridin-3-yl)-N,N-dimethylmethanamine] | > 10000 nM | > 10000 nM |  | > 10000 nM | 20.8% | 34.7% | 4900 nM | 21% |  | 36.6%

Continued, in another order:

Row | EC50 [1] | EC50 [2] | EC50 [4] | EC50 [5] | Structure (SMILES) | inhibition at 10 µM [1] | inhibition at 10 µM [2] | EC50 [3] | Emax [4] | inhibition at 10 µM [3] | inhibition at 10 µM [5]
9 | > 10000 nM | 352 nM |  | 347 nM | c1cncc(-c2ccc3[nH]nc(-c4cc5c(-c6ccsc6)ccnc5[nH]4)c3c2)c1 [Compound 284, 5-(Pyridin-3-yl)-3-(4-(thiophen-3-yl)-1H-pyrrolo[2,3-b]pyridin-2-yl)-1H-indazole] | 38% |  | 2200 nM | 39% |  | 
10 | 4280 nM | > 10000 nM | 100 nM | 1010 nM | Cc1ccncc1-c1ccc2[nH]nc(-c3cc4c(-c5ccoc5)ccnc4[nH]3)c2c1 [Compound 313, 3-(4-(Furan-3-yl)-1H-pyrrolo[2,3-b]pyridin-2-yl)-5-(4-methylpyridin-3-yl)-1H-indazole] |  | 0% | > 10000 nM | 67% | 36.3% | 
11 | 890 nM | 9200 nM |  | 694 nM | CC(C)(C)CC(=O)Nc1cncc(-c2ccc3[nH]nc(-c4cc5c(-c6ccoc6)ccnc5[nH]4)c3c2)c1 [Compound 324, N-(5-(3-(4-(Furan-3-yl)-1H-pyrrolo[2,3-b]pyridin-2-yl)-1H-indazol-5-yl)pyridin-3-yl)-3,3-dimethylbutanamide] |  |  | > 10000 nM | 21% | 0% | 
12 | > 10000 nM | > 10000 nM |  | 586 nM | Cn1cc(-c2ccc3[nH]nc(-c4cc5c(-c6cccnc6)ccnc5[nH]4)c3c2)cn1 [Compound 556, 5-(1-Methyl-1H-pyrazol-4-yl)-3-(4-(pyridin-3-yl)-1H-pyrrolo[2,3-b]pyridin-2-yl)-1H-indazole] | 20% | 0% | 191 nM | 28% |  | 
13 | > 10000 nM | > 10000 nM |  | > 10000 nM | COc1cncc(-c2ccc3[nH]nc(-c4cc5c(-c6ccoc6)ccnc5[nH]4)c3c2)c1 [Compound 692, 3-(4-(Furan-3-yl)-1H-pyrrolo[2,3-b]pyridin-2-yl)-5-(5-methoxypyridin-3-yl)-1H-indazole] | 20% | 0% | > 10000 nM | 26% | 0% | 43.9%
